# Results as given in patent US11584746B2, “Inhibitors of EGFR and methods of use thereof” (DANA-FARBER CANCER INSTITUTE, INC., priority 2018, dated 2023).
# Where two headings read alike, the source gives them in different places.
# Columns and labels:
# [1] = test system: patients with NSCLC resistant to gefitinib or erlotinib; details: cited from earlier work
# [2] = test system: EGFR T790M/L858R Ba/F3 cell line; experiment: Ba/F3 cell proliferation (MTS assay), EGFR T790M/L858R; assay type: cell-based, murine; details: for inhibition at 1 µM: compound at 1 μM, EGFR T790M/L858R Ba/F3, read-out: Inhibition of proliferation, Activity (% DMSO control)
# Experimental: The selectivity between wild-type EGFR and EGFR containing one or more mutations as described herein can also be measured using cellular proliferation assays where cell proliferation is dependent on kinase activity. […] Proliferation assays are performed at a range of inhibitor concentrations (e.g., 10 μM, 3 μM, 1.1 μM, 330 nM, 110 nM, 33 nM, I1 nM, 3 nM, 1 nM) and an EC50 is calculated.
# All cell lines were maintained in RPMI 1640 (Cellgro; Mediatech Inc., Herndon, Calif.) supplemented with 10% FBS 100 units/mL penicillin, 100 units/mL streptomycin, and 2 mM glutamine. […] The EGFR I941R mutation was introduced via site directed mutagenesis using the Quick Change Site-Directed Mutagenesis kit (Stratagene; La Jolla, Calif.) according to the manufacturer's instructions. All constructs were confirmed by DNA sequencing. The constructs were shuttled into the retroviral vector JP1540 using the BD Creator™ System (BD Biosciences). Ba/F3 cells were infected with retrovirus and according to standard protocols, as described previously (Zhou 2009). Stable clones were obtained by selection in puromycin (2 μg/ml).
# Growth and inhibition of growth was assessed by MTS assay and was performed according to previously established methods (Zhou 2009). The MTS assay is a colorimetric method for determining the number of viable cells that is based on the bioreduction of MTS by cells to a formazan product that is soluble in cell culture medium and can be detected spectrophotometrically. […] All experimental points were set up in six wells and all experiments were repeated at least three times. […] The curves were fitted using a non-linear regression model with a sigmoidal dose response.
# [3] = test system: EGFR L858R/T790M/C797S Ba/F3 cell line; experiment: Ba/F3 cell proliferation (MTS assay), EGFR L858R/T790M/C797S; assay type: cell-based, murine; details: Mus musculus, BaF3, compound at 1 μM, read-out: Inhibition of proliferation, Activity (% DMSO control)
# Text: The selectivity between wild-type EGFR and EGFR containing one or more mutations as described herein can also be measured using cellular proliferation assays where cell proliferation is dependent on kinase activity. For example, murine Ba/F3 cells transfected with a suitable version of wild-type EGFR (such as VIII; containing a WT EGFR kinase domain), or Ba/F3 cells transfected with L858R/T790M, Del/T790M/L718Q, L858R/T790M/L718Q, L858R/T790M/C797S, Del/T790M/C797S, L858R/T790M/I941R, or Exon 19 deletion/T790M can be used. Proliferation assays are performed at a range of inhibitor concentrations (e.g., 10 μM, 3 μM, 1.1 μM, 330 nM, 110 nM, 33 nM, I1 nM, 3 nM, 1 nM) and an EC50 is calculated.
# The EGFR mutant L858R, Del E746_A750, L858R/T790M, DelE746_A750/T790M, L858R/T790M/C797S and Del/T790M/C797S Ba/F3 cells were previously described (Zhou et al., Nature 462, (2009), 1070-1074). All cell lines were maintained in RPMI 1640 (Cellgro; Mediatech Inc., Herndon, Calif.) supplemented with 10% FBS 100 units/mL penicillin, 100 units/mL streptomycin, and 2 mM glutamine. L858R cells were maintained in ACL-4 media (Invitrogen, Carlsbad, Calif.) supplemented with 5% FBS, 100 units/mL penicillin, 100 units/mL streptomycin, and 2 mM glutamine. The EGFR I941R mutation was introduced via site directed mutagenesis using the Quick Change Site-Directed Mutagenesis kit (Stratagene; La Jolla, Calif.) according to the manufacturer's instructions. All constructs were confirmed by DNA sequencing. The constructs were shuttled into the retroviral vector JP1540 using the BD Creator™ System (BD Biosciences). Ba/F3 cells were infected with retrovirus and according to standard protocols, as described previously (Zhou 2009). Stable clones were obtained by selection in puromycin (2 μg/ml).
# Growth and inhibition of growth was assessed by MTS assay and was performed according to previously established methods (Zhou 2009). The MTS assay is a colorimetric method for determining the number of viable cells that is based on the bioreduction of MTS by cells to a formazan product that is soluble in cell culture medium and can be detected spectrophotometrically. Ba/F3 cells of different EGFR genotypes were exposed to treatment and the number of cells used per experiment determined empirically and has been previously established (Zhou 2009). All experimental points were set up in six wells and all experiments were repeated at least three times. […] The curves were fitted using a non-linear regression model with a sigmoidal dose response.
# [4] = biological target: recombinant EGFR T790M/L858R kinase (Homo sapiens (Human), UniProt P00533, L858R/T790M); experiment: HTRF-based EGFR biochemical assay
# Sequence of recombinant EGFR T790M/L858R kinase (P00533 696-1022 T790M/L858R): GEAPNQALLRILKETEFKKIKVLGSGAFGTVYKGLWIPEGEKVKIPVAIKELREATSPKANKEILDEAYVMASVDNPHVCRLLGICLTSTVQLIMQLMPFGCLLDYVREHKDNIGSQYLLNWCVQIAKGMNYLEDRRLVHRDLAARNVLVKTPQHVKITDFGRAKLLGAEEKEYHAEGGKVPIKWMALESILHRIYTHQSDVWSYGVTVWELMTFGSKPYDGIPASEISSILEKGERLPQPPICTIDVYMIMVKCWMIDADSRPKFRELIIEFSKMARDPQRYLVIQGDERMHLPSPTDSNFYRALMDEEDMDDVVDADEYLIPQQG
# Experimental: EGFR biochemical assays are carried out using a homogeneous time-resolved fluorescence (HTRF) assay. The reaction mixtures contain biotin-Lck-peptide substrate, wild type, or mutant EGFR enzyme in reaction buffer. Enzyme concentrations are adjusted to accommodate varying kinase activity and ATP concentrations. Compounds of the present application are diluted into the assay mixture and IC50 values are determined using 12-point inhibition curves.
# EGFR kinase proteins were purified by glutathione-affinity chromatography followed by size-exclusion chromatography after cleavage with TEV or thrombin to remove the GST fusion partner following established procedures. (Yun 2008; Yun 2007).
# EGFR biochemical assays were carried out using a homogeneous time-resolved fluorescence (HTRF) assay as described previously. The reaction mixtures contained 1 μM biotin-Lck-peptide substrate, wild type or mutant EGFR enzyme in reaction buffer (50 mM HEPES pH 7.1, 10 mM MgCl2, 0.01% BSA. 1 mM TCEP and 0.1 mM Na3VO4) at a final volume of 10 μL. […] All reactions were carried out at room temperature in white ProxiPlate™ 384-well Plus plates (PerkinElmer) and were quenched with 5 μL of 0.2 M EDTA at 60 min. Five μL per well of the detection reagent containing 2.5 ng PT66K (Cis-bio) and 0.05 μg SAXL (Prozyme) were added, and the plates were then incubated at room temperature for 1 hour and read with an EnVision plate reader.
# [5] = Mus musculus, BaF3, read-out: Ba/F3 cellular activity (EC50) T790M/L858R
# [6] = read-out: Ba/F3 cellular activity (EC50) T790M/L858R + Cetuximab (1 μg/mL), presence of 1 μg/mL cetuximab
Structure (SMILES),RR [1] [%],"inhibition at 1 µM ([2]; Mus musculus, BaF3) [%]","EC50 [2, 5] [nM]","EC50 [2, 6] [nM]",inhibition at 1 µM [3] [%],IC50 [4] [nM]
CN(C)C/C=C/C(=O)Nc1cc2c(Nc3ccc(F)c(Cl)c3)ncnc2cc1O[C@H]1CCOC1 [Afatinib],< 10,,,,,
"O=C1c2cc(-c3ccc(N4CCNCC4)cc3)ccc2Nc2ccc(F)cc2N1Cc1ccccc1 [Compound I-1, 10-Benzyl-8-fluoro-2-(4-(piperazin-1-yl)phenyl)-5,10-dihydro-11H-dibenzo[b,e][1,4]diazepin-11-one]",,≥ 75,≥ 750,500 to 750,≥ 75,< 250
O=C1c2cc(-c3ccc4[nH]ccc4c3)ccc2Nc2ccc(F)cc2N1Cc1ccccc1 [Compound I-2],,≥ 75,≥ 750,< 250,≥ 75,< 250
CN1CCC(n2cc(-c3ccc4c(c3)C(=O)N(Cc3ccccc3)c3cc(F)ccc3N4)cn2)CC1 [Compound I-3],,≥ 75,≥ 750,< 250,≥ 75,< 250
O=C1c2cc(-c3ccc(-c4cn[nH]c4)cc3)ccc2Nc2ccc(F)cc2N1Cc1ccccc1 [Compound I-4],,≥ 75,≥ 750,250 to 500,≥ 75,< 250
O=C1c2cc(-c3ccc(N4CCNCC4)cc3)ccc2Nc2ccc(F)cc2N1c1ccccc1 [Compound I-5],,≥ 75,≥ 750,≥ 750,≥ 75,
O=C1c2cc(-c3ccc(N4CCNCC4)cc3)ccc2Nc2ccc(F)cc2N1Cc1cccnc1 [Compound I-6],,≥ 75,≥ 750,≥ 750,≥ 75,
O=C1c2cc(-c3ccc(N4CCNCC4)cc3)ccc2Nc2ccc(F)cc2N1Cc1nccs1 [Compound I-7],,≥ 75,≥ 750,≥ 750,≥ 75,< 250
O=C1c2cc(-c3ccc4[nH]ccc4c3)ccc2Nc2ccc(F)cc2N1c1ccccc1 [Compound I-8],,≥ 75,≥ 750,≥ 750,≥ 75,
O=C1c2cc(-c3ccc4[nH]ccc4c3)ccc2Nc2ccc(F)cc2N1Cc1cccnc1 [Compound I-9],,≥ 75,≥ 750,≥ 750,≥ 75,
O=C1c2cc(-c3ccc4[nH]ccc4c3)ccc2Nc2ccc(F)cc2N1Cc1nccs1 [Compound I-10],,≥ 75,≥ 750,≥ 750,≥ 75,
O=C1c2cc(-c3ccc(N4CCNCC4)cc3)ccc2Nc2ccccc2N1Cc1ccccc1 [Compound I-11],,≥ 75,≥ 750,250 to 500,≥ 75,< 250
O=C1c2cc(-c3ccc(N4CCNCC4)cc3)ccc2Nc2ncc(F)cc2N1Cc1ccccc1 [Compound I-12],,,≥ 750,≥ 750,,
O=C1c2cc(-c3ccc(N4CCNCC4)cc3)ccc2Nc2ccncc2N1Cc1ccccc1 [Compound I-13],,,≥ 750,≥ 750,,
Nc1ccc2c(c1)N(Cc1ccccc1)C(=O)c1cc(-c3ccc4[nH]ccc4c3)ccc1N2 [Compound I-14],,,≥ 750,≥ 750,,
CC(=O)Nc1ccc2c(c1)N(Cc1ccccc1)C(=O)c1cc(-c3ccc4[nH]ccc4c3)ccc1N2 [Compound I-15],,,≥ 750,≥ 750,,
CCC(=O)Nc1ccc2c(c1)N(Cc1ccccc1)C(=O)c1cc(-c3ccc4[nH]ccc4c3)ccc1N2 [Compound I-16],,,250 to 500,250 to 500,,
CN1CCC(c2ccc(-c3ccc4c(c3)C(=O)N(Cc3ccccc3)c3cc(F)ccc3N4)cc2)CC1 [Compound I-17],,,,,,< 250
O=C1c2cc(-c3ccc(N4CCNCC4)cc3)ccc2Nc2ccc(F)cc2N1Cc1cccc2cc[nH]c12 [Compound I-18],,,≥ 750,< 250,,< 250
O=C1c2cc(-c3ccc(N4CCNCC4)cc3)ccc2Nc2ccc(F)cc2N1Cc1ccc2cc[nH]c2c1 [Compound I-19],,,≥ 750,≥ 750,,
"CN1CCN(c2ccc(Oc3ccc4c(c3)C(=O)N(Cc3ccccc3)c3cc(F)ccc3N4)cc2)CC1 [Compound I-20, 10-benzyl-8-fluoro-2-(4-(4-methylpiperazin-1-yl)phenoxy)-5,10-dihydro-11H-dibenzo[b,e][1,4]diazepin-11-one]",,,≥ 750,250 to 500,,< 250
CN1CCC(n2cc(-c3ccc4c(c3)C(=O)N(Cc3cccc(F)c3)c3cc(F)ccc3N4)cn2)CC1 [Compound I-22],,,≥ 750,≥ 750,,< 250
CN1CCC(n2cc(-c3ccc4c(c3)C(=O)N(Cc3cccc(Cl)c3)c3cc(F)ccc3N4)cn2)CC1 [Compound I-23],,,≥ 750,≥ 750,,< 250
CN1CCC(n2cc(-c3ccc4c(c3)C(=O)N(Cc3cc(F)cc(F)c3)c3cc(F)ccc3N4)cn2)CC1 [Compound I-24],,,≥ 750,≥ 750,,< 250
CN1CCC(n2cc(-c3ccc4c(c3)C(=O)N(Cc3cccc5cc[nH]c35)c3cc(F)ccc3N4)cn2)CC1 [Compound I-25],,,≥ 750,≥ 750,,< 250
O=C1c2cc(Br)ccc2Nc2ccc(F)cc2N1Cc1ccccc1 [I-a],,,≥ 750,250 to 500,,< 250
